Data from PubChem BioAssay (NCI).
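Exposure lasted 48 hours, with cells grown in 96-well plates and compounds tested at five concentrations. At the GI50, growth is halved. Definition used: TGI = concentration required for complete inhibition of growth.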

Experiments:
Test in all cases: NCI-60 cell line screen, 48 h
[1] = test system: UACC-257 melanoma
[2] = test system: SK-MEL-5 melanoma
[3] = test system: IGROV1 ovarian
[4] = test system: OVCAR-5 ovarian
[5] = test system: OVCAR-3 ovarian
[6] = test system: NCI-H522 lung
[7] = test system: M14 melanoma
[8] = test system: TK-10 renal
[9] = test system: SK-MEL-28 melanoma
[10] = test system: MDA-MB-231 breast

| Structure (SMILES) | GI50 [1] [µM] | TGI [1] [µM] | GI50 [2] [µM] | TGI [2] [µM] | GI50 [3] [µM] | TGI [3] [µM] | GI50 [4] [µM] | TGI [4] [µM] | GI50 [5] [µM] | TGI [5] [µM] | GI50 [6] [µM] | TGI [6] [µM] | GI50 [7] [µM] | TGI [7] [µM] | GI50 [8] [µM] | TGI [8] [µM] | GI50 [9] [µM] | TGI [9] [µM] | GI50 [10] [µM] | TGI [10] [µM] |
| --- | --- | --- | --- | --- | --- | --- | --- | --- | --- | --- | --- | --- | --- | --- | --- | --- | --- | --- | --- | --- |
| COc1ccc(C2C=C(c3ccc(Cl)cc3)N=C3SC=C(C)N32)c(Br)c1 (stereo unspecified) | 4.42 | 18.8 | 2.8 | 11.2 | 3.62 | 20.4 | 3.12 | 11.2 | 2.36 | 5.48 | 2.96 | 9.29 | 3.99 | 15.7 | 4.05 | 14.4 | 5.11 | 17.4 | 4.72 | 22.1 |
| Cc1cccc(NC(=O)/C=C/c2ccc([N+](=O)[O-])cc2)c1 | – | > 55.1 | – | > 51 | – | > 53.7 | – | > 57 | – | 27.6 | – | > 53.9 | – | > 59.4 | – | > 56.8 | – | > 57.6 | – | > 52.8 |
| COc1ccc(C(CC(=O)c2ccccc2)C(C(=O)c2ccccc2)C(c2ccc(OC)cc2)C2C(=O)NC(=S)NC2=O)cc1 (stereo unspecified) | 13.8 | 52.7 | 10.5 | 22.7 | 8.67 | 48.5 | 13.9 | 37.7 | 4.96 | 24.8 | 11.9 | 35.1 | 36.9 | > 100 | 18.7 | > 100 | 16 | > 100 | 2.16 | 10.6 |
| NC(=S)N=Nc1c(O)c2ccccc2c2ccccc12 | 1.72 | 3.31 | 1.41 | 2.9 | 27.2 | > 100 | 2.45 | 6.94 | 3.02 | 10.2 | 3.22 | 9.66 | 1.78 | 3.35 | 44.6 | > 94.1 | 2.98 | 10 | 16.1 | 60.2 |
| COc1ccc(Nc2nc3cc(N)cc(N)c3nc2-c2ccccc2)cc1OC | 35.6 | > 100 | 12.2 | 25.5 | 24.8 | > 100 | 29.7 | 72.7 | 29.9 | > 100 | 28.9 | > 100 | 21 | 69.8 | 20.9 | 58.5 | 21.5 | 49.7 | 4.92 | 18.5 |
| Cc1ccc(-c2nc([P+](c3ccccc3)(c3ccccc3)c3ccccc3)c(Nc3ccccc3)o2)cc1 | 0.831 | 2.7 | 0.406 | 1.48 | 0.708 | 2.08 | 1.31 | 2.68 | 0.288 | 0.886 | 0.259 | 1.15 | 0.655 | 2.08 | 1.27 | 2.78 | 1.22 | 2.52 | 0.728 | 2.09 |
| C[C@]12CCNC(=O)C=C1CC[C@@H]1C2CC[C@@]2(C)C1CC[C@@H]2OC(=O)COc1ccc(N(CCCl)CCCl)cc1 (stereo partly specified) | – | 37.2 | – | 24.6 | – | 33.4 | – | 29.5 | – | 8.25 | – | 3.08 | – | 20.3 | – | 35.6 | – | 36.3 | – | 34.8 |
| CCOC(=O)c1ccc2c(c1)[n+](=O)c(C(C)=O)c(C(F)(F)F)n2[O-] | 1.76 | 3.5 | 1.5 | 2.84 | 1.46 | 3.42 | 1.56 | 3.22 | 1.49 | 2.93 | 1.8 | 3.84 | 1.7 | 3.67 | 1.39 | 3.25 | 2.87 | 10.1 | 1.75 | 3.62 |
| O=C(CC(=O)c1cccc(Cl)c1)c1cccc(Cl)c1 | 5.99 | > 100 | 3.87 | > 100 | 2.63 | > 100 | 4.3 | > 100 | 1.67 | 6.09 | 2.72 | > 100 | 2.35 | > 100 | 4.12 | > 100 | 2.7 | > 100 | 2.67 | > 100 |
| Nc1nc(N)c2cc(Sc3cccc(C(F)(F)F)c3)ccc2n1 | 1.27 | 3.36 | – | 5.86 | – | 15.6 | – | 16.3 | – | 13.6 | – | 8.34 | – | 2.21 | – | 14 | – | 7.61 | – | 7.14 |
| COc1cc(NCCN=C(N)NC(N)=NC(C)C)c2ncccc2c1 | 11 | 32.5 | 3.4 | 11.7 | 1.37 | > 24.8 | 11.2 | 39.3 | 1.06 | 23.1 | 3.61 | 40.7 | 22.6 | > 100 | 11.3 | 69.9 | 14.1 | > 83.8 | 3.17 | 21.4 |
| CC1=C(C)C2(O)C(=C(C)C1=O)/C(=C(/O)c1ccccc1)c1nc3ccccc3n12 (stereo unspecified) | 16.5 | 33.4 | 16.6 | 31.3 | 12.3 | 30.4 | – | – | 12.6 | 38.6 | 19.6 | 44.2 | 23.5 | 52.7 | 20.1 | 58.9 | 20.6 | 49.4 | 15.4 | 30 |
| CCN1C[C@]2(COC)[C@H](O)C[C@H](OC)[C@]34C1[C@H]([C@H](OC)[C@H]23)[C@]1(OC(C)=O)[C@H]2[C@@H](OC(=O)c3ccccc3)[C@](O)(C[C@H]24)[C@@H](OC)[C@@H]1O | – | > 100 | – | > 100 | – | > 100 | – | > 100 | – | – | – | > 100 | – | > 100 | – | > 100 | – | > 100 | – | > 100 |
| Cc1cc(Nc2cc(N3CCN(C)CC3)nc(Sc3ccc(NC(=O)C4CC4)cc3)n2)n[nH]1 | 3.52 | > 10 | 3.19 | > 10 | 4.82 | > 10 | – | – | 3.46 | > 10 | 4.16 | > 10 | 1.48 | > 10 | > 10 | > 10 | 3.47 | > 10 | 3.98 | > 10 |
